In patent US6610697B1, “Substituted 2-aryl-3-(heteroaryl)-imidazo[1,2-a]pyrimidines, and related pharmaceutical compositions and methods” (Ortho-McNeil Pharmaceutical, Inc., priority 1999, dated 2003) one finds IC50 and inhibition in vivo data, which are given here for 24 molecules.

Experiment [1] has as its system TNF-α. The experiment can be described thus: PBMC whole cell assay (LPS/PBMC, TNF-α ELISA). It counts as cell-based. Particulars: human PBMC, LPS stimulation overnight. Here is the method:
Representative compounds of the present invention were tested in an in vitro whole cell assay using peripheral blood mononuclear cells (“PBMC's”) which were obtained from human blood as follows. Freshly obtained venous blood was anticoagulated with heparin, diluted with an equal volume of phosphate buffered saline (“PBS”) and placed in a sterile tube or other container. Aliquots (30 mL) of this mixture were transferred to centrifuge tubes which were underlaid with Ficoll-Hypaque (15 mL). The prepared tubes were centrifuged at 400×g without braking for 30 min at room temperature. Approximately ½ to ⅔ of the platelet layer above the mononuclear cell band was removed with a pipette. The majority of the mononuclear cell layer was carefully removed using a pipette and these PBMC's were diluted with PBS and spun at 600×g for 15 min. The resulting PBMC's were washed with another portion of PBS and spun at 400×g for 10 min at room temperature. The recovered pellets were diluted in low endotoxin RPMI/1% FCS culture medium and gave a cell concentration of 0.5-2.0×10^6 PMBC/mL. A small volume of the suspension was removed for counting on a hemocytometer and the remaining preparation was centrifuged at 200×g for 15 min at room temperature. The recovered pelleted PMBC's were re-suspended in RPMI/1% FCS to a concentration of 1.67×10^6/mL.
To run the assay, the PBMC suspension (180 μL) was transferred to duplicate wells of a 96-well flat-bottom microtiter plate and incubated for 1 h at 37° C. A solution of test compound (10 μL, prepared at 20×the desired final concentration) was added to each well and the plate was incubated for 1 h at 37° C. A solution (10 μL) of LPS in RPMI/1% FCS (200 ng/mL) was added and the wells were incubated overnight at 37° C. The supernate (100 μL) was removed from each well and diluted with RPMI/1% FCS (400 μL). The samples were analyzed for TNF-α using a commercial ELISA kit (Genzyme).
(An ELISA detects its analyte on a solid surface through an enzyme-linked reagent.)

Experiment [2] concerns LPS-induced TNF-α production. Briefly: In vivo rodent assay, LPS-induced TNF-α production. Conditions: Mus musculus; BALB/cJ female mice, oral 10 mg/kg, LPS 1 mg/kg i.p. 30 min after dosing, serum TNF-α 1 h later. The procedure: Mice (BALB/cJ females, Jackson Laboratories) were fasted for 30 min. prior to oral dosing with 5-10 mL/kg of a test compound at 5-50 mg/kg. Thirty minutes after dosing, the animals were injected intraperitoneally with LPS at 1 mg/kg and returned to their cages for 1 h. Animals were anesthetized by CO2, exsanguinated by cardiac puncture and whole blood collected (0.1-0.7 mL). The blood was allowed to clot and serum was transferred to a centrifuge tube. This sample was centrifuged, and serum was collected, aliquoted, and frozen at −80° C. Samples were tested by commercial ELISA's for TNF-α (Endogen for mouse TNF-α). The % inhibition of the test compounds was calculated by the following formula: % inhibition=[1-(sample-BKG)/(CTRL-BKG)]×100.

In experiment [1], `Nc1ccn2c(-c3ccncc3)c(-c3ccc(F)cc3)nc2n1` [Compound 1, 2-(4-fluorophenyl)-3-(4-pyridinyl)-imidazo[1,2-a]pyrimidin-7-amine] came in with an IC50 of 49 nM. Further, 10 mg/kg produced 100% inhibition in vivo in experiment [2].
For `Nc1ccn2c(-c3ccncc3)c(-c3cccc(F)c3)nc2n1` [Compound 2, 2-(3-fluorophenyl)-3-(4-pyridinyl)-imidazo[1,2-a]pyrimidin-7-amine], in that order: 55 nM and 100%.
In the case of `Nc1ccn2c(-c3ccnc4ccccc34)c(-c3ccc(F)cc3)nc2n1` [Compound 3, 2-(4-fluorophenyl)-3-(4-quinolinyl)-imidazo[1,2-a]pyrimidin-7-amine], 333 nM corresponded to half-maximal inhibition in experiment [1] (IC50). This molecule also came in with an inhibition in vivo at 10 mg/kg in experiment [2] of 26%.
With `Nc1ccn2c(-c3ccncc3)c(-c3ccc(F)c(Cl)c3)nc2n1` [Compound 4, 2-(3-chloro-4-fluorophenyl)-3-(4-pyridinyl)-imidazo[1,2-a]pyrimidin-7-amine], 21 nM corresponded to half-maximal inhibition in experiment [1] (IC50). For the same molecule, the inhibition in vivo at 10 mg/kg in experiment [2] turned out to be 100%.
The molecule `Nc1ccn2c(-c3ccncc3)c(-c3ccccc3)nc2n1` [Compound 5, 2-phenyl-3-(4-pyridinyl)-imidazo[1,2-a]pyrimidin-7-amine] gave an IC50 in experiment [1] of 55 nM. The same molecule yielded an inhibition in vivo at 10 mg/kg in experiment [2] of 100%.
For `Nc1ccn2c(-c3ccnc(NCc4ccccc4)c3)c(-c3ccc(F)cc3)nc2n1` [Compound 6, 2-(4-fluorophenyl)-3-[2-[(phenylmethyl)amino]4-pyridinyl]-imidazo[1,2-a]pyrimidin-7-amine], in that order: 6 nM and 42%.
For `Nc1ccn2c(-c3ccncc3)c(-c3cccc(C(F)(F)F)c3)nc2n1` [Compound 7, 3-(4-pyridinyl)-2-[3-(trifluoromethyl)phenyl]-imidazo[1,2-a]pyrimidin-7-amine] the same measures were 35 nM and 99%.
For `Nc1ccn2c(-c3ccnc(NCc4ccccc4)c3)c(-c3cccc(C(F)(F)F)c3)nc2n1` [Compound 8, 3-[2-[(phenylmethyl)amino]4-pyridinyl]-2-[3-(trifluoromethyl)phenyl]-imidazo[1,2-a]pyrimidin-7-amine] the same measures were 4 nM and 19%.
In experiment [1], `C[C@H](Nc1nccc(-c2c(-c3cccc(C(F)(F)F)c3)nc3nc(N)ccn23)n1)c1ccccc1` [Compound 9, 3-[2-[[(1S)-1-Phenylethyl]amino]4-pyrimidinyl]-2-[3-(trifluoromethyl)phenyl]imidazo[1,2-a]pyrimidin-7-amine] had an IC50 of 0.5 nM. In addition, the inhibition in vivo at 10 mg/kg in experiment [2] amounted to 97%.
In turn, `CSc1nccc(-c2c(-c3ccc(F)cc3)nc3nc(N)ccn23)n1` [Compound 10, 2-(4-Fluorophenyl)-3-[2-(methylthio)-4-pyrimidinyl]imidazo[1,2-a]pyrimidin-7-amine] had an IC50 in experiment [1] of 37 nM. The inhibition in vivo at 10 mg/kg in experiment [2] stood at 68%.
For `CSc1nccc(-c2c(-c3cccc(C(F)(F)F)c3)nc3nc(N)ccn23)n1` [Compound 11, 3-[2-(Methylthio)-4-pyrimidinyl]-2-[3-(trifluoromethyl)phenyl]imidazo[1,2-a]pyrimidin-7-amine] the same measures were 27 nM and 38%.
For `CSc1nccc(-c2c(-c3cccc(F)c3)nc3nc(N)ccn23)n1` [Compound 12, 2-(3-Fluorophenyl)-3-[2-(methylthio)-4-pyrimidinyl]imidazo[1,2-a]pyrimidin-7-amine], in that order: 10 nM and 51%.
On to `Nc1ccn2c(-c3ccncn3)c(-c3cccc(C(F)(F)F)c3)nc2n1` [Compound 13, 3-(4-Pyrimidinyl)-2-[3-(trifluoromethyl)phenyl]imidazo[1,2-a]pyrimidin-7-amine], for which the IC50 in experiment [1] came out at 278 nM. The inhibition in vivo at 10 mg/kg in experiment [2] worked out at 85%.
In the case of `Nc1ccn2c(-c3ccnc(N4CCCCC4)n3)c(-c3ccccc3)nc2n1` [Compound 14, 2-Phenyl-3-[2-(1-piperidinyl)-4-pyrimidinyl]imidazo[1,2-a]pyrimidin-7-amine], the midpoint of inhibition in experiment [1], the IC50, lay at 8 nM. This molecule also showed an inhibition in vivo at 10 mg/kg in experiment [2] of 63%.
`CSc1nccc(-c2c(-c3ccccc3)nc3nc(N)ccn23)n1` [Compound 15, 3-[2-(Methylthio)-4-pyrimidinyl]-2-phenylimidazo[1,2-a]pyrimidin-7-amine]: the IC50 in experiment [1] turned out to be 28 nM. The molecule also came in with an inhibition in vivo at 10 mg/kg in experiment [2] of 23%.
For `Nc1ccn2c(-c3ccncn3)c(-c3ccccc3)nc2n1` [Compound 16, 2-Phenyl-3-(4-pyrimidinyl)imidazo[1,2-a]pyrimidin-7-amine] the same measures were 304 nM and 73%.
On to `CS(=O)(=O)c1nccc(-c2c(-c3ccccc3)nc3nc(N)ccn23)n1` [Compound 17, 3-[2-(Methylsulfonyl)-4-pyrimidinyl]-2-phenylimidazo [1,2-a]pyrimidin-7-amine], for which half-maximal inhibition in experiment [1] (IC50) was put at 3410 nM.
For the molecule `CS(=O)(=O)c1nccc(-c2c(-c3cccc(C(F)(F)F)c3)nc3nc(N)ccn23)n1` [Compound 18, 3-[2-(Methylsulfonyl)-4-pyrimidinyl]-2-[3-(trifluoromethyl)phenyl]imidazo[1,2-a]pyrimidin-7-amine], in experiment [1], the IC50 was 520 nM. Further, at 10 mg/kg the inhibition in vivo in experiment [2] was 10%.
As for `C[C@H](Nc1nccc(-c2c(-c3ccccc3)nc3nc(N)ccn23)n1)c1ccccc1` [Compound 19, 2-Phenyl-3-[2-[[(1S)-1-phenylethyl]amino]4-pyrimidinyl]imidazo[1,2-a]pyrimidin-7-amine], the IC50 in experiment [1] was determined as 0.4 nM. Further, in experiment [2], 10 mg/kg produced 100% inhibition in vivo.
For the molecule `COc1ccc(CNc2nccc(-c3c(-c4ccccc4)nc4nc(N)ccn34)n2)cc1` [Compound 20, 3-[[[(4-Methoxyphenyl)methyl]amino]-4-pyrimidinyl]-2-phenylimidazo[1,2-a]pyrimidin-7-amine], in experiment [1], the IC50 worked out at 14 nM. In other words, the double-digit nanomolar range.
`C[C@H](Nc1nccc(-c2c(-c3ccc(F)cc3)nc3nc(N)ccn23)n1)C1CCCCC1` [Compound 22, 3-[2-[[(1S)-1-Cyclohexylethyl]amino]-4-pyrimidinyl]-2-(4-fluorophenyl)imidazo[1,2-a]pyrimidin-7-amine] had an IC50 in experiment [1] of 1 nM. This molecule also registered an inhibition in vivo at 10 mg/kg in experiment [2] of 74%.
For `COc1nccc(-c2c(-c3ccccc3)nc3nc(N)ccn23)n1` [Compound 23, 3-(2-Methoxy-4-pyrimidinyl)-2-phenylimidazo[1,2-a]pyrimidin-7-amine], in that order: 90 nM and 87%.
With `Nc1ccn2c(-c3ccncn3)c(-c3ccc(F)cc3)nc2n1` [Compound 24, 2-(4-Fluorophenyl)-3-(4-pyrimidinyl)imidazo[1,2-a]pyrimidin-7-amine], the IC50 in experiment [1] stood at 199 nM. In experiment [2], this molecule returned an inhibition in vivo at 10 mg/kg of 91%.
On to `Nc1ccn2c(-c3ccncc3)c(-c3cccc(Cl)c3)nc2n1` [Compound 25, 2-(3-Chlorophenyl)-3-(4-pyridinyl)imidazo[1,2-a]pyrimidin-7-amine], for which the IC50 in experiment [1] is 162 nM. In experiment [2], this molecule returned an inhibition in vivo at 10 mg/kg of 47%.

As usually defined, the IC50 is the concentration at which inhibition is half-maximal. High values mean lower potency, low ones higher potency. By inhibition in vivo is commonly meant the drop in the measured response relative to a control, in per cent. Higher therefore signals strong suppression.
